The assay deals with neurones de cortex. Description: Survival of cortex neurons in primary culture. Format: cell-based, rat. To be noted: 10⁻⁵M; after 10 days of culture; versus control cells; p < 0,02, Student t (figure 3). The source says: Les dérivés de l'invention ont été testés sur des neurones du système nerveux central en culture primaire. Les cultures sont préparées à partir de cerveaux d'embryons de rats. Les neurones proviennent de l'une des trois zones cérébrales suivantes: le cortex à partir d'embryons de 14 jours, l'hippocampe et le septum à partir d'embryons de 18 jours. Les cellules sont ensemencées à faible densité (10⁵ cellules/lamelle) sur des lamelles prétraitées avec de la poly-L-lysine. Les cellules sont maintenues dans un milieu de culture chimiquement défini. Les dérivés testés sont ajoutés le premier jour de la mise en culture des cellules à des doses variant de 10⁻⁹ M à 10⁻⁴ M. Le changement de milieu se fait tous les quatre jours avec addition des composés à tester.
On suit la survie des neurones en culture à l'aide d'un microscope en contraste de phase. De manière générale, les cellules témoins dégénèrent après 11 jours de culture alors que le nombre de cellules survivantes est significativement élevé dans les cultures traitées avec les dérivés de l'invention.
A titre d'exemple, l'effet du composé A₁, sur la survie des neurones de cortex est représenté sur la figure 3. Ce graphique représente le nombre de neurones survivants après 10 jours de culture.

On to `CC1=C(CCCCCCCCCCCO)C(C)(C)CCC1` [composé A₁], for which the “nombre de neurones survivants” value is recorded as “significativement augmenté”.

For the origin of these results see patent publication EP0593831A1, “Long-chain fatty alcohols as neurotrophic and memory improving agents” (MEDAFOR, priority 1992, dated 1994).
